The text below walks through data of patent US5840936A, “Aminosterol compounds useful as inhibitors of the sodium/proton exchanger (NHE)” (priority 1995, dated 1998).

In series [1] the target is NHE1. To be noted: cited from earlier work.
Series [2] concerns the target NHE2. To be noted: cited from earlier work.
Series [3] has as its target NHE3. The conditions noted are these: cited from earlier work.
The test system of series [4] is L1210 lymphoblastic leukemia. Nature of the series: Mouse model of L1210 leukemia. The conditions noted are these: mouse, in vivo.
Text: C57B mice were inoculated with L1210 lymphoblastic leukemia cells at an inoculum that causes leukemia in 100% of animals.
The subject of series [5] is chick embryo vitelline capillaries. The series is described as follows: Chick embryo vitelline capillary regression assay. Format: in vivo. Also on record: key to Vitelline capillary regression: +: Vascular reactivity; 0: No vascular reactivity; +/-: Equivocal reactivity. As for the experimental part: Using the chick embryo vitelline capillaries assay, compounds were tested for their ability to induce capillary regression. Each compound was applied in 0.1 ml of 15% Ficol 400 and PBS onto the embryo, and vascular regression was assessed after 60 minutes.
The 3-day chick embryo consists of an embryonic disc from which numerous vessels emerge and return, forming a "FIG. 8"-shaped structure--the embryo in the center with vascular loops extending outward over both poles. […] Following a lag period of around 15 minutes, the constriction of continuity between capillary and secondary vessels, generally on the "venous" side, was observed. Continued pulsatile blood flow progressed, resulting in a "swelling" of the blind tube, followed by a pinching off of the remaining connection and formation of an enclosed vascular sac resembling a "blood island." This process progressed until only the largest vessels remained intact.

In series [6] the test system is HM. Nature of the series: HM MTT assay. Format: cell-based. The conditions noted are these: Table II; read-out: HM MTT assay, Minimum Effective Concentration.
In series [7] the test system is human melanoma. The series is described as follows: Time course of effect on melanoma growth; apoptosis. The class given is cell-based.
In series [8] the test system is ELC. Nature of the series: ELC MTT. Format: cell-based. The conditions noted are these: Table II; read-out: ELC MTT, Minimum Effective Concentration.
In series [9] the test system is Xenopus tadpoles, stage 59-60. The series is described as follows: Xenopus tadpole assay. To be noted: in vivo.

As a reminder, the Ki is a measure of affinity in units of concentration, obtained from inhibition or displacement. As for `CCCN(C)c1nc(N)c(C(=O)N=C(N)N)nc1Cl` [MPA, methylpropylamiloride], the Ki in series [1] is 80 nM; in series [2], 5000 nM; in series [3], 10000 nM.
Turning to `N.N.[Cl][Pt][Cl]` [Cisplatin, reference compound], in [4], the “Hematological profile” value is listed as “profound anemia by day 28”.
For `CN(C)c1nc(N)c(C(=O)N=C(N)N)nc1Cl` [DMA, dimethylamiloride], the inhibition constant (Ki) in series [1] is 100 nM; in [2], 700 nM; in [3] it was 11000 nM.
With `CC(C)CCC[C@@H](C)[C@H]1CC[C@H]2[C@@H]3CC[C@H]4C[C@@H](NCCCNCCCCNCCCN)CC[C@]4(C)[C@H]3CC[C@]12C` [Compound 353], in series [5] (1 μg applied), the Vitelline capillary regression entry is listed as “+/-”. For the same compound, the “Effect on chick embryo vessels” value in series [5] (3- to 5-day chick embryo) was “no effect on the chick embryo capillary bed”. Also, the minimal effective concentration in series [6] is 3 µg/mL. Further, in [7], the Apoptosis entry is “apoptotic cell death has been induced” and the “Time course of effect on growth of melanoma” value was “most pronounced over 48 hours, with less of an effect noted within the first 12 hours of incubation”. The minimal effective concentration in series [8] amounted to 1.9 µg/mL. For the same compound, the “Pharmacologic similarity in tadpole assay” value in series [9] is listed as “effects like those produced by compound 1436”.
